Measurements reported in ChEMBL document CHEMBL4507293 (2021).

Key:
[1] = biological target: 3',5'-cyclic-AMP phosphodiesterase 4A (Homo sapiens, UniProt P27815); assay: Biochemical assay (PDE4A)
[2] = biological target: Dual specificity mitogen-activated protein kinase kinase 5 (Homo sapiens) (UniProt Q13163); details: Compound concentration 100.0 nM
[3] = biological target: TGF-beta receptor type-2 (Homo sapiens) (UniProt P37173); details: Compound concentration 100.0 nM
[4] = biological target: Ribosomal protein S6 kinase alpha-4 (Homo sapiens) (UniProt O75676); details: Compound concentration 100.0 nM
[5] = biological target: Calcium/calmodulin-dependent protein kinase type IV (Homo sapiens) (UniProt Q16566); details: Compound concentration 100.0 nM
[6] = biological target: RAC-beta serine/threonine-protein kinase (Homo sapiens) (UniProt P31751); details: Compound concentration 100.0 nM
[7] = biological target: Cyclin-dependent kinase 11A (Homo sapiens) (UniProt Q9UQ88); details: Compound concentration 100.0 nM
Sequence of Cyclin-dependent kinase 11A (Homo sapiens) (Q9UQ88 whole entry, canonical isoform): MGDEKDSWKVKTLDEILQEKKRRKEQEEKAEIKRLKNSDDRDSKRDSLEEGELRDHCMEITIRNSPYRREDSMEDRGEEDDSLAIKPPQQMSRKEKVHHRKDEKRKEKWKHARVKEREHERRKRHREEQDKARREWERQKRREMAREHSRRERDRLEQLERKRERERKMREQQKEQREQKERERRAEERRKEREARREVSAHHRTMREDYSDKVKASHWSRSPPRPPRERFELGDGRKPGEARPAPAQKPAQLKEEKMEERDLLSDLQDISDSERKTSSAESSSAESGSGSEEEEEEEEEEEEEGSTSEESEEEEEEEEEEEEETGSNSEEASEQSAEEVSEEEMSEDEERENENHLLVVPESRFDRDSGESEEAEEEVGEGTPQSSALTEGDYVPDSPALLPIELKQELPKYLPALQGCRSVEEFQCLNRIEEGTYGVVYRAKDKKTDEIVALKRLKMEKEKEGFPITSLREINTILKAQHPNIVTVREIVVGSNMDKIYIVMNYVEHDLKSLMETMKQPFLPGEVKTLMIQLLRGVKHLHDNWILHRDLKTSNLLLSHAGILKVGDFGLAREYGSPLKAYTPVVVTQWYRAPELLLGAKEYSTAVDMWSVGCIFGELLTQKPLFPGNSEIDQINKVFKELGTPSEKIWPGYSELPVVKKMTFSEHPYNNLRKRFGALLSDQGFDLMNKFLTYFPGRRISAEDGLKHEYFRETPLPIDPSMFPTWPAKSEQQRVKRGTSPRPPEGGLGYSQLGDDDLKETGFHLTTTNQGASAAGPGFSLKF

[8] = biological target: Casein kinase I isoform epsilon (Homo sapiens) (UniProt P49674); details: Compound concentration 100.0 nM
[9] = biological target: Muscarinic acetylcholine receptor M3 (Homo sapiens) (UniProt P20309); details: Compound concentration 10.0 uM
[10] = biological target: Activin receptor type-1B (Homo sapiens) (UniProt P36896); details: Compound concentration 100.0 nM
[11] = biological target: Serine/threonine-protein kinase PRP4 homolog (Homo sapiens) (UniProt Q13523); details: Compound concentration 100.0 nM
[12] = biological target: Aurora kinase C (Homo sapiens) (UniProt Q9UQB9); details: Compound concentration 100.0 nM
Sequence of Aurora kinase C (Homo sapiens) (Q9UQB9 whole entry): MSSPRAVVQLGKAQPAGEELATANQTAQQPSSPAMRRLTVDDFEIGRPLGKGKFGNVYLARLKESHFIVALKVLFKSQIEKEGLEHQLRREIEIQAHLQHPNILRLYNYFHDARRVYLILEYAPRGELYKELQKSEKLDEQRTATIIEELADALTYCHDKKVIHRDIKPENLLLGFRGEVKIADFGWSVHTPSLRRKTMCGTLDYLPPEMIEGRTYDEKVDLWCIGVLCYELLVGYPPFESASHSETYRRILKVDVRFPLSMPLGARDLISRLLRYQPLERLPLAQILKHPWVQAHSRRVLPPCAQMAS

[13] = biological target: Serine/threonine-protein kinase haspin (Homo sapiens) (UniProt Q8TF76); details: Compound concentration 100.0 nM
[14] = test system: Epidermal growth factor receptor (Homo sapiens), P00533 [L858R,T790M]; details: Compound concentration 100.0 nM
[15] = biological target: Serine/threonine-protein kinase mTOR (Homo sapiens) (UniProt P42345); details: Compound concentration 100.0 nM
[16] = test system: Receptor-type tyrosine-protein kinase FLT3 (Homo sapiens), P36888 [D835H]; details: Compound concentration 100.0 nM
[17] = biological target: Serine/threonine-protein kinase PLK3 (Homo sapiens) (UniProt Q9H4B4); details: Compound concentration 100.0 nM
[18] = biological target: Serine/threonine-protein kinase Nek2 (Homo sapiens) (UniProt P51955); details: Compound concentration 100.0 nM
[19] = biological target: Tyrosine-protein kinase ABL1 (Homo sapiens) (UniProt P00519); details: Compound concentration 100.0 nM
[20] = biological target: Ephrin type-B receptor 4 (Homo sapiens) (UniProt P54760); details: Compound concentration 100.0 nM
Sequence of Ephrin type-B receptor 4 (Homo sapiens) (P54760 whole entry): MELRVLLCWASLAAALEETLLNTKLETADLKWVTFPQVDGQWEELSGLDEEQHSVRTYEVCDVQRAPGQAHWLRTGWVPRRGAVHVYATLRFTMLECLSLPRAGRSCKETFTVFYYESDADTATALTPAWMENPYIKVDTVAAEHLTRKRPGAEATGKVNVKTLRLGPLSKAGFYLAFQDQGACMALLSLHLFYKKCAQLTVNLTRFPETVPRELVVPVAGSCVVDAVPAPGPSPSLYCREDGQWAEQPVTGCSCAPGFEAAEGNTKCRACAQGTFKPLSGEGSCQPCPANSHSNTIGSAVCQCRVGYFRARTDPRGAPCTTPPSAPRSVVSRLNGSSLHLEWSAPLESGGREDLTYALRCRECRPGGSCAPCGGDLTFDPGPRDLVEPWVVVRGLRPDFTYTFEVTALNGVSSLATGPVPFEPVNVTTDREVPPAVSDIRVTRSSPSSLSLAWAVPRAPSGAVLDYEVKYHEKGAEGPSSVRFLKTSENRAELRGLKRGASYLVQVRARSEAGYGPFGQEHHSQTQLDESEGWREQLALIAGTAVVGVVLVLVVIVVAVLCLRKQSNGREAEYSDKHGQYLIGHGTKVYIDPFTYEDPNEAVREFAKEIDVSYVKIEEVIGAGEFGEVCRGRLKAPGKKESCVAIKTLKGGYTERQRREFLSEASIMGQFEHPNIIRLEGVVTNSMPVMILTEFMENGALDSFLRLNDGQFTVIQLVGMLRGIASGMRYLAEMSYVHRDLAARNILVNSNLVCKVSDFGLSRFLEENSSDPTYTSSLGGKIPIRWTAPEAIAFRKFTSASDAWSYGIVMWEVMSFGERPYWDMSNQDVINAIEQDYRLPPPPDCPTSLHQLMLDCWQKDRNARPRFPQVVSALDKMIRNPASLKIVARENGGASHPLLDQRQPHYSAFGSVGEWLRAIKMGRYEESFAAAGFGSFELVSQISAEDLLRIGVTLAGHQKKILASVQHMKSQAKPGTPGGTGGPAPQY

[21] = biological target: Ephrin type-A receptor 6 (Homo sapiens) (UniProt Q9UF33); details: Compound concentration 100.0 nM
[22] = biological target: Glycogen synthase kinase-3 alpha (Homo sapiens) (UniProt P49840); details: Compound concentration 100.0 nM
Sequence of Glycogen synthase kinase-3 alpha (Homo sapiens) (P49840 2-483 limits assumed): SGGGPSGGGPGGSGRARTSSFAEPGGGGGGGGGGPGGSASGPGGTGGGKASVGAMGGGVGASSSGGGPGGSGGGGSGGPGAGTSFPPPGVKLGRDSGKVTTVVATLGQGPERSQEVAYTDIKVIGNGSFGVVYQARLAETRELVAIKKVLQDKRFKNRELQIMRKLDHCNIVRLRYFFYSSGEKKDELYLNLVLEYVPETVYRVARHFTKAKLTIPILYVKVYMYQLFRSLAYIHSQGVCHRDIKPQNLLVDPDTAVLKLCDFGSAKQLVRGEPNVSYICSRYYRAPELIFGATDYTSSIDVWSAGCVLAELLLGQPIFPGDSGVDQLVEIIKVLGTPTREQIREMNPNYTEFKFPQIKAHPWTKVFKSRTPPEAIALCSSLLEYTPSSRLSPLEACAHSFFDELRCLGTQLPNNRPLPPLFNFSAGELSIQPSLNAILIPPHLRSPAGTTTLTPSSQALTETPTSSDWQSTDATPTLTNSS

[23] = biological target: 5'-AMP-activated protein kinase catalytic subunit alpha-2 (Homo sapiens) (UniProt P54646); details: Compound concentration 100.0 nM
[24] = biological target: Dual specificity tyrosine-phosphorylation-regulated kinase 2 (Homo sapiens) (UniProt Q92630); details: Compound concentration 100.0 nM
[25] = biological target: Epithelial discoidin domain-containing receptor 1 (Homo sapiens) (UniProt Q08345); details: Compound concentration 100.0 nM
[26] = test system: Mast/stem cell growth factor receptor Kit (Homo sapiens), P10721 [D816H]; details: Compound concentration 100.0 nM
Sequence of Mast/stem cell growth factor receptor Kit (Homo sapiens), P10721 [D816H] (P10721 whole entry D816H): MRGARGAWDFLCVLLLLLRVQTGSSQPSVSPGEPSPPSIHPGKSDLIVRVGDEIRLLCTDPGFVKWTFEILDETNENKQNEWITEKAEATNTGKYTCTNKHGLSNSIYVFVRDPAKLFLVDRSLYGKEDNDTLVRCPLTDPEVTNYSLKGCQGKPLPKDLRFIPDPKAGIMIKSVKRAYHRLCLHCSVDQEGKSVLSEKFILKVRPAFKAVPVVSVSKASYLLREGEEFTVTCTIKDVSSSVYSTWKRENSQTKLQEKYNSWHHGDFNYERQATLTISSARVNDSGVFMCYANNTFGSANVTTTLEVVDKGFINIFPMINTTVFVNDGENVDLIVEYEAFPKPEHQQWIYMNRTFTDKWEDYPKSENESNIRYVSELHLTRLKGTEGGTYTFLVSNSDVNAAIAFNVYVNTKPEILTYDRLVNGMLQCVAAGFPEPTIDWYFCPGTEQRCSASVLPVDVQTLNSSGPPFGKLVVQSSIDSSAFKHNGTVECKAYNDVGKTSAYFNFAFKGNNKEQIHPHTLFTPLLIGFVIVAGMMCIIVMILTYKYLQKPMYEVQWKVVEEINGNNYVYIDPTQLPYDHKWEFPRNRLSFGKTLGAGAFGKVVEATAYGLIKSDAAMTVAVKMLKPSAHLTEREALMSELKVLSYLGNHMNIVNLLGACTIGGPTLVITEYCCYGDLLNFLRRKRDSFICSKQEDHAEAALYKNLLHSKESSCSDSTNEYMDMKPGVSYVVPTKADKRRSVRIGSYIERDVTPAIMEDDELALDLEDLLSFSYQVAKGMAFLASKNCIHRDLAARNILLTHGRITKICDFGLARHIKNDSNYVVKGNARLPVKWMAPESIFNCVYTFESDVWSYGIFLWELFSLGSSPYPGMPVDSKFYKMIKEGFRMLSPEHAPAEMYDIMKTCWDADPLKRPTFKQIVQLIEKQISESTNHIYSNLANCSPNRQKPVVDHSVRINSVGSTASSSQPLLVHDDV

[27] = biological target: cAMP-dependent protein kinase catalytic subunit alpha (Homo sapiens) (UniProt P17612); details: Compound concentration 100.0 nM
[28] = biological target: Ribosomal protein S6 kinase alpha-6 (Homo sapiens) (UniProt Q9UK32); details: Compound concentration 100.0 nM
[29] = biological target: Serine/threonine-protein kinase MAK (Homo sapiens) (UniProt P20794); details: Compound concentration 100.0 nM
[30] = biological target: Mitogen-activated protein kinase kinase kinase 4 (Homo sapiens) (UniProt Q9Y6R4); details: Compound concentration 100.0 nM
[31] = biological target: Mitogen-activated protein kinase 14 (Homo sapiens) (UniProt Q16539); details: Compound concentration 100.0 nM
[32] = biological target: Serine/threonine-protein kinase LATS2 (Homo sapiens) (UniProt Q9NRM7); details: Compound concentration 100.0 nM
[33] = biological target: Myosin light chain kinase 2, skeletal/cardiac muscle (Homo sapiens) (UniProt Q9H1R3); details: Compound concentration 100.0 nM
[34] = biological target: D(3) dopamine receptor (Homo sapiens) (UniProt P35462); details: Compound concentration 10.0 uM
[35] = test system: Mast/stem cell growth factor receptor Kit (Homo sapiens), P10721 [A829P]; details: Compound concentration 100.0 nM
Sequence of Mast/stem cell growth factor receptor Kit (Homo sapiens), P10721 [A829P] (P10721 whole entry A829P): as the sequence (P10721 whole entry D816H) above, with H816D, A829P counted along it

[36] = test system: Mast/stem cell growth factor receptor Kit (Homo sapiens), P10721 [V559D,T670I]; details: Compound concentration 100.0 nM
Sequence of Mast/stem cell growth factor receptor Kit (Homo sapiens), P10721 [V559D,T670I] (P10721 whole entry V559D/T670I): as the sequence (P10721 whole entry D816H) above, with V559D, T670I, H816D counted along it

[37] = biological target: T1, Alpha-2C adrenergic receptor (Homo sapiens) (UniProt P18825); details: Compound concentration 10.0 uM
T1 sequence (whole entry): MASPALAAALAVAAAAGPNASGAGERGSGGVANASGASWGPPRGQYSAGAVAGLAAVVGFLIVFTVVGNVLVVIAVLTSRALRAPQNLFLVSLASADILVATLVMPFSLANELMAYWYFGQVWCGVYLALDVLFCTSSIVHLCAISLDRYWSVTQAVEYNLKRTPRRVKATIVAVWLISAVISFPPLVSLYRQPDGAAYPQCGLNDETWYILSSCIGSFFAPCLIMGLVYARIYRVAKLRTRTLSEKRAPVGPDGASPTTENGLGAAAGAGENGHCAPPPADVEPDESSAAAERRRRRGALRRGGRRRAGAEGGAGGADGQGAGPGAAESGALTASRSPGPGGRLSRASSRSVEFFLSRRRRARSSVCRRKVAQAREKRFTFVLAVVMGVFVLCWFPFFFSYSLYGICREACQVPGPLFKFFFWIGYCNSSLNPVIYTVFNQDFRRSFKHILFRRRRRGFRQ

[38] = biological target: Non-receptor tyrosine-protein kinase TYK2 (Homo sapiens) (UniProt P29597); details: Compound concentration 100.0 nM
Sequence of Non-receptor tyrosine-protein kinase TYK2 (Homo sapiens) (P29597 whole entry): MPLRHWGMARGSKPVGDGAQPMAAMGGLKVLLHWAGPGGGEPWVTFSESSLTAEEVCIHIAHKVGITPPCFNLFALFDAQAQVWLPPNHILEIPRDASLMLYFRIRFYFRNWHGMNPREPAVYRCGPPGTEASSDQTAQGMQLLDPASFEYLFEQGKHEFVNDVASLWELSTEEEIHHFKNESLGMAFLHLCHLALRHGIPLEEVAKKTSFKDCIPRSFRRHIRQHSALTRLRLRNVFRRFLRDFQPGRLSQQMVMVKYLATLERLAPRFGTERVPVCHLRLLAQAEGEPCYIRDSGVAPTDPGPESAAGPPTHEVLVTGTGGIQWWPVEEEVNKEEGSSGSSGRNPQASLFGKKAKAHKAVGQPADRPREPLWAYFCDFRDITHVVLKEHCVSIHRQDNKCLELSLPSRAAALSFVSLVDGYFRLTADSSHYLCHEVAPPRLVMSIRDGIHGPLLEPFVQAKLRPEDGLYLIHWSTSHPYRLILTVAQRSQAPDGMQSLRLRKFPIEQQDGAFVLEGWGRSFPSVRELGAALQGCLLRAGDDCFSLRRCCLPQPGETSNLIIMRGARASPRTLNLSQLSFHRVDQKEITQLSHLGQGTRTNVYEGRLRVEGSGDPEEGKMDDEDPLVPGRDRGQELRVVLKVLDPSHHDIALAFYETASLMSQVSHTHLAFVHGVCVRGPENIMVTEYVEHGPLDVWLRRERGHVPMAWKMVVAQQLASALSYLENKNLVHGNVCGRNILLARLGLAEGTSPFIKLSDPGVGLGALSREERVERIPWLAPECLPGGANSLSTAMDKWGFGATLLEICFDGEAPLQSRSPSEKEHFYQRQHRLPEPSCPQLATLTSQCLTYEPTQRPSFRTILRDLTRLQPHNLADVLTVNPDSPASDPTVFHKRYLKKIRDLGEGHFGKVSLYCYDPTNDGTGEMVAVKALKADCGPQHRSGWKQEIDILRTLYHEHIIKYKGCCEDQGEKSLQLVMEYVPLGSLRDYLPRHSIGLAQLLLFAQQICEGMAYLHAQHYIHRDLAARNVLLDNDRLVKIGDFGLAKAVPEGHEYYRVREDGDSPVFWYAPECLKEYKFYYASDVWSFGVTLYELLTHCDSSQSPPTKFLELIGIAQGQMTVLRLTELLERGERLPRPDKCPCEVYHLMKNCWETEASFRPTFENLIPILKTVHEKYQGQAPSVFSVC

[39] = biological target: Protein kinase C eta type (Homo sapiens) (UniProt P24723); details: Compound concentration 100.0 nM

| Structure (SMILES) | Ki [1] | residual activity [2] [%] | residual activity [3] [%] | residual activity [4] [%] | residual activity [5] [%] | residual activity [6] [%] | residual activity [7] [%] | residual activity [8] [%] | inhibition [9] [%] | residual activity [10] [%] | residual activity [11] [%] | residual activity [12] [%] | residual activity [13] [%] | residual activity [14] [%] | residual activity [15] [%] | residual activity [16] [%] | residual activity [17] [%] | residual activity [18] [%] | residual activity [19] [%] | residual activity [20] [%] | other results |
| --- | --- | --- | --- | --- | --- | --- | --- | --- | --- | --- | --- | --- | --- | --- | --- | --- | --- | --- | --- | --- | --- |
| CC(C)CC(=O)N1CCc2nc(-c3ccc(Br)cc3)nc(N(C)Cc3ccccc3)c2C1 [THPP-1-NC] | 9.83 µM (not active) | 98 | 97 | 74 | 100 | 100 | 100 | 100 | 13.5 | 89 | 100 | 100 | 100 | 100 | 89 | 100 | 100 | 100 | 66 | 100 | residual activity [21]: 100%; residual activity [22]: 100%; residual activity [23]: 100%; residual activity [24]: 84%; residual activity [25]: 100%; residual activity [26]: 71%; residual activity [27]: 89%; residual activity [28]: 100%; residual activity [29]: 99%; residual activity [30]: 100%; residual activity [31]: 100%; residual activity [32]: 94%; residual activity [33]: 96%; inhibition [34]: 5.44%; residual activity [35]: 97%; residual activity [36]: 95%; inhibition [37]: 48%; residual activity [38]: 100%; residual activity [39]: 94% |
| COCCOc1nc(-c2ccc(Cl)nc2)nc2c1CN(C(=O)c1ncn3ccccc13)CC2 [THPP-1] | 5.9 µM (not active) | 100 | 94 | 86 | 100 | 100 | 100 | 100 | 3.95 | 86 | 100 | 95 | 100 | 100 | 97 | 100 | 100 | 100 | 68 | 100 | residual activity [21]: 100%; residual activity [22]: 100%; residual activity [23]: 100%; residual activity [24]: 100%; residual activity [25]: 100%; residual activity [26]: 68%; residual activity [27]: 82%; residual activity [28]: 100%; residual activity [29]: 100%; residual activity [30]: 100%; residual activity [31]: 100%; residual activity [32]: 68%; residual activity [33]: 94%; inhibition [34]: -6.15%; residual activity [35]: 88%; residual activity [36]: 100%; inhibition [37]: 1.3%; residual activity [38]: 100%; residual activity [39]: 97% |
